From patent US20040186122A1, “Method of treating acute pain with a unitary dosage form comprising ibuprofin and oxycodone” (Forest Laboratories, Inc., priority 2002, published 2004)

Legend:
[1] = cited from earlier work
Caco-2 cell monolayers [2] = assay: Membrane integrity (TEER) of Caco-2 cell monolayers before and after transport; format: cell-based; conditions: at the concentrations used; TEER 980-1002 Ωcm^2 before, not changed after transport
Procedure: Each treatment was performed in triplicate. […] Samples then underwent LC/MS/MS analysis.

[3] = Transport (Papp) across Caco-2 cell monolayers, AP to BL; conditions: human, Caco-2, Apparent permeability coefficients of oxycodone (±standard deviation) (n = 3); for Papp A→B at 20 min, 0.02 mg/ml: after 20 minutes; for Papp A→B at 80 min, 0.02 mg/ml: oxycodone 0.02 mg/ml, AP-to-BL
Caco-2 cell monolayers [4] = assay: as above; conditions: after the initial 20-minute transport period
[5] = tertiary amine; cited from earlier work
in vitro = conditions: human, Caco-2, Apparent permeability coefficients of ibuprofen (±standard deviation) (n = 3)

| SMILES | absolute bioavailability ([1]; literature (Leow et al. 1992)) [%] | integrity of Caco-2 cell monolayers (TEER) (Caco-2 cell monolayers [2]) | Papp A→B at 20 min, 0.02 mg/ml ([3]; ibuprofen 0 mg/ml) [×10⁻⁶ cm/s] | Papp A→B at 20 min, 0.02 mg/ml ([3]; ibuprofen 0.8 mg/ml) [×10⁻⁶ cm/s] | Papp A→B at 20 min, 0.02 mg/ml ([3]; ibuprofen 1.6 mg/ml) [×10⁻⁶ cm/s] | Papp A→B at 20 min, 0.02 mg/ml ([3]; ibuprofen 3.2 mg/ml) [×10⁻⁶ cm/s] | Papp A→B at 80 min, 0.02 mg/ml ([3]; ibuprofen 0 mg/ml) [×10⁻⁶ cm/s] | Papp A→B at 80 min, 0.02 mg/ml ([3]; ibuprofen 0.8 mg/ml) [×10⁻⁶ cm/s] | Papp A→B at 80 min, 0.02 mg/ml ([3]; ibuprofen 1.6 mg/ml) [×10⁻⁶ cm/s] | Papp A→B at 80 min, 0.02 mg/ml ([3]; ibuprofen 3.2 mg/ml (precipitate)) [×10⁻⁶ cm/s] | percentage of transported oxycodone from apical to basolateral compartment (Caco-2 cell monolayers [4]; ibuprofen 0.8 mg/ml) [%] | percentage of transported oxycodone from apical to basolateral compartment (Caco-2 cell monolayers [4]; ibuprofen 1.6 mg/ml) [%] | transport of oxycodone, effect of ibuprofen (Caco-2 cell monolayers [4]; ibuprofen 3.2 mg/ml (precipitating)) | percentage of transported oxycodone from apical to basolateral compartment (Caco-2 cell monolayers [4]; no ibuprofen) [%] | pKa [5] | bioavailability ([1]; literature (Hall et al. 1993)) [%] | Papp A→B at 80 min, 0.2 mg/ml (in vitro) [×10⁻⁶ cm/s] |
| --- | --- | --- | --- | --- | --- | --- | --- | --- | --- | --- | --- | --- | --- | --- | --- | --- | --- |
| COc1ccc2c3c1O[C@H]1C(=O)CC[C@@]4(O)[C@@H](C2)N(C)CC[C@]314.Cl [oxycodone HCl, oxycodone hydrochloride] | 87 | did not compromise the integrity | 15 ± 0.9 | 20 ± 0.6 | 19 ± 0.3 | 16 ± 0.7 | 54.2 ± 0.9 | 56.9 ± 1.4 | 55.1 ± 1.3 | 50.5 ± 0.5 | 20 | 19 | did not increase the transport | 15 | about 9 | – | – |
| CC(C)Cc1ccc(C(C)C(=O)O)cc1 (stereo not drawn) [ibuprofen] | – | did not compromise the integrity | – | – | – | – | – | – | – | – | – | – | – | – | – | ~100 | 56.5 ± 4.3 |
